Our source for the Ki values is ChEMBL document CHEMBL1687944, “Purification and inhibition studies with anions and sulfonamides of an α-carbonic anhydrase from the Antarctic seal Leptonychotes weddellii” (Bioorg Med Chem, 2011).

The target in the test is Carbonic anhydrase 1 (Homo sapiens, UniProt P00915).
Carbonic anhydrase 1, sequence (P00915 whole entry): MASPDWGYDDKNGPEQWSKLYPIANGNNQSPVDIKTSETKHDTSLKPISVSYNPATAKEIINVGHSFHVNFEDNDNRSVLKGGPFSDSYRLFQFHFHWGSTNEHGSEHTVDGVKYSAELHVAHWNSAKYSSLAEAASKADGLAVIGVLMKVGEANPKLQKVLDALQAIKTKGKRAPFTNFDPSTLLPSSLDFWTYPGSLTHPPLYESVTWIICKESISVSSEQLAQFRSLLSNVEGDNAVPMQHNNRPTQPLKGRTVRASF
For `O=S([O-])O.[Na+]` [SODIUM BISULFITE], the Ki was determined as 18 mM.

Compound `O=[N+]([O-])[O-].[Na+]` [SODIUM NITRATE] came in with a Ki of 7 mM. On to `[O-][Cl+3]([O-])([O-])O` [SODIUM PERCHLORATE], for which the inhibition constant Ki was over 200 mM.
